According to article PMC8837819, “Syrbactin-class dual constitutive- and immuno-proteasome inhibitor TIR-199 impedes myeloma-mediated bone degeneration in vivo” (Bioscience Reports, 2022):
Where two headings read alike, the source gives them in different places.

Assays:
[1] = biological target: T1, PSMB5-FLAG (chymotryptic-like activity, constitutive 26S proteasome) (Homo sapiens, UniProt P20618+P28074); assay: Proteasome activity assay on immunoprecipitated WT PSMB5-FLAG (Suc-LLVY-AMC); assay type: biochemical; conditions: for proteasomal activity of WT PSMB5: Suc-LLVY-AMC, relative to DMSO, n=3
T1 construct: made in house; host or cells: HEK293 cells stably expressing PSMB5-FLAG; FLAG immunoprecipitate
Description: (B) Wildtype (WT) PSMB5-FLAG was immunoprecipitated from HEK293 cells stably expressing PSMB5-FLAG. […] Also refer to Supplementary Figure S1. (D) HEK-293T cells were treated in the absence (DMSO) or presence of 0.5 μM of TIR-199 for 6 h. Cell lysates were subjected to immunoblotting with the indicated antibodies. […] (E) HEK-293T cells were treated in the absence (DMSO) or presence of either 0.1 μM of bortezomib (BTZ) or 0.2 μM of TIR-199 for 4 h. Cell lysates were subjected to immunoblotting with the indicated antibodies.

[2] = system: endogenous proteasome in MM.1S cells; assay: Chymotryptic-like proteasome activity in lysates of treated MM.1S cells; assay type: cell-based, human; conditions: 0.5 μM TIR-199 for 0.5 h vs DMSO, Suc-LLVY-AMC, n=3
[3] = system: proteasome in primary CD138+ myeloma cells; assay: Chymotryptic-like proteasome activity in primary CD138+ myeloma cells of patients; assay type: cell-based, human; conditions: CD138+ cells of two refractory patients; 500 nM for 0.5 h; Suc-LLVY-AMC; n=3
Description: CD138^+ myeloma cells were purified from the bone marrow aspirates which were obtained from HIPAA compliant de-identified consenting patients in accordance with Institutional Review Board protocol: 181027 approved on 9 October 2019 at UCSD. The bone marrow aspirates were kindly provided by Dr. Caitlin Costello, Moores Cancer Center, UCSD. CD138^+ primary myeloma cells were purified from fresh bone marrow aspirates of multiple myeloma patients using EasySep™ Human Whole Blood and Bone Marrow CD138 Positive Selection Kit II (StemCell Technologies) following manufacturer’s instructions. Viable cells were collected for further analyses.
Figure 1 TIR-199 is a syrbactin-based constitutive proteasome inhibitor (A) Chemical structure of syrbactin derivative TIR-199. (B) Wildtype (WT) PSMB5-FLAG was immunoprecipitated from HEK293 cells stably expressing PSMB5-FLAG. […] (C) Proteasome activity in lysates from MM.1S and primary CD138^+ myeloma cells purified from two patients treated with DMSO or 0.5 μM TIR-199 for 0.5 h was measured with Suc-LLVY-AMC. *P<0.05; **P<0.01; ***P<0.001 (compared with control treated, two-tailed paired Student’s t test, mean ± SD from n=3 replicates). Also refer to Supplementary Figure S1. (D) HEK-293T cells were treated in the absence (DMSO) or presence of 0.5 μM of TIR-199 for 6 h. Cell lysates were subjected to immunoblotting with the indicated antibodies. […]

HEK293T cells = assay: Immunoblot of proteasome substrates and ubiquitylated proteins in HEK293T cells; assay type: cell-based, human
Description: Data were normalized to corresponding GAPDH levels. […] (D) HEK-293T cells were treated in the absence (DMSO) or presence of 0.5 μM of TIR-199 for 6 h. Cell lysates were subjected to immunoblotting with the indicated antibodies. Similar results were obtained in three independent replicates. (E) HEK-293T cells were treated in the absence (DMSO) or presence of either 0.1 μM of bortezomib (BTZ) or 0.2 μM of TIR-199 for 4 h. Cell lysates were subjected to immunoblotting with the indicated antibodies. Similar results were obtained in two independent replicates.

[4] = system: panel of 50 protein kinases; assay: Kinase specificity profiling, panel of 50 protein kinases (33P-ATP); assay type: biochemical; conditions: 1 μM TIR-199 (20-fold PSMB5 IC50); triplicate reactions
Description: TIR-199 specificity profiling assays were carried out at The International Centre for Protein Kinase Profiling (http://www.kinase-screen.mrc.ac.uk/). TIR-199 kinase specificity was determined against a panel of 50 protein kinases as described previously. The assay mixes and ^33P-γATP were added by Multidrop 384 (Thermo). Results are presented as a percentage of kinase activity in DMSO control reactions. Protein kinases were assayed in vitro with 1 μM final concentration of TIR-199 and the results are presented as an average of triplicate reactions ± SD or in the form of comparative histograms.
Kinase profiling of TIR-199 at 1 μM was carried out against the panel of 50 kinases at the
International Centre for Protein Kinase Profiling (http://www.kinase-screen.mrc.ac.uk/).
(1 picture or pasted object on this page, not shown here)

[5] = system: PSMB9-FLAG (immunoproteasome); assay: Immunoproteasome activity assay on immunoprecipitated PSMB9-FLAG (Ac-PAL-AMC); assay type: biochemical, human; conditions: n=3; for PSMB9 activity at single concentration: 100 nM for 30 min, Ac-PAL-AMC
Description: Also refer to Supplementary Figure S2.

A549 cells = assay: Cytotoxicity assay (MTS), A549; assay type: cell-based; conditions: 48 h
Description: MTS absorbance was measured in a Tecan plate reader.

[6] = system: MM.1S myeloma-mediated bone degeneration in NSG mice; assay: MM.1S/NSG systemic myeloma xenograft, μCT of femurs; assay type: in vivo, mouse; conditions: 5 mg/kg i.p. daily for 4 days
[7] = biological target: PSMB8-FLAG (immunoproteasome) (Homo sapiens, UniProt P20618+P28062); assay: Immunoproteasome activity assay on immunoprecipitated PSMB8-FLAG (Ac-ANW-AMC); conditions: 100 nM for 30 min; Ac-ANW-AMC; n=3
Description: (§1) Immunoproteasome activity assays were carried out as stated previously [32]. Briefly, HEK293 cells transiently overexpressing FLAG-tagged PSMB9 or PSMB8 were treated with IFNγ (100 ng/ml; 48 h) to induce expression of immunoproteasome. […] Immunoproteasomes were affinity purified using FLAG agarose from 2 mg of cell lysate. Peptidase activities of purified immunoproteasomes were assayed using 100 μM fluorogenic peptide substrates Ac-ANW-AMC for PSMB8 and Ac-PAL-AMC for PSMB9 (Boston Biochem) for 30 min.
(§2) (B) PSMB8 or PSMB9 was immunoprecipitated for 48 h in 100 ng/ml IFNγ-stimulated HEK293 cells transiently overexpressing either PSMB8-FLAG or PSMB9-FLAG. […] Fluorescence signal upon release of AMC was measured in a Tecan plate reader. […] Results are means ± S.D. for n=3 replicates.

[8] = biological target: PSMB8-FLAG (immunoproteasome) (Homo sapiens, UniProt P28062); assay: as above
Description: as §1, §2

[9] = system: PSMB5 (AA/TV) bortezomib-resistant mutant; conditions: Suc-LLVY-AMC, relative to DMSO, n=3
[10] = vs vehicle, distal and proximal femur combined, n=6 femurs

SMILES: CCCCCCCCCCCCNC(=O)N[C@H](C(=O)N[C@H]1/C=C/CCNC(=O)/C=C/[C@H](C)NC1=O)C(C)C [TIR-199]
- IC50 [1]: 50 nM
- proteasomal activity of WT PSMB5 ([1]; 100 nM TIR-199): equally sensitive
- chymotryptic-like endogenous proteasome activity in cell lysates [2]: inhibition of chymotryptic-like endogenous proteasome activity
- chymotryptic-like proteasome activity compared with DMSO [3]: decreased significantly
- accumulation of ubiquitylated proteins (immunoblot) (HEK293T cells; 200 nM TIR-199 for 4 h): accumulation of ubiquitylated proteins
- proteasome substrates p62, IKBα and p21 protein levels (immunoblot) (HEK293T cells; 250 nM TIR-199 for 6 h (legend: 0.5 μM)): protein levels increased
- inhibition of 50 kinases in vitro [4]: does not inhibit
- PSMB9 activity at single concentration [5]: did not inhibit
- caspase-like activity of PSMB9 ([5]; up to 250 nM TIR-199, 100 μM Ac-PAL-AMC): largely more resistant
- sensitivity to TIR-199 within lung cancer panel (A549 cells): relatively more resistant
- myeloma-mediated bone degeneration ([6]; femurs 7 days after dosing): slowed down the myeloma-mediated bone degeneration process
- % bone volume over total volume (% BV/TV), femur μCT [6, 10]: not significant
- trabecular number (Tb.N), femur μCT [6, 10]: higher trabecular number
- trabecular separation (Tb.Sp), femur μCT [6, 10]: significantly lower trabecular separation
- PSMB8 activity at single concentration [7]: inhibited PSMB8 potently
- IC50 [8]: ~100 nM
- proteasomal activity of AA/TV PSMB5 ([9]; 100 nM TIR-199): equally sensitive

SMILES: CC(C)C[C@H](NC(=O)[C@H](Cc1ccccc1)NC(=O)c1cnccn1)B(O)O [bortezomib, reference compound]
- proteasomal activity of WT PSMB5 ([1]; 10 nM bortezomib): dramatic reduction in proteasomal activity
- accumulation of ubiquitylated proteins (immunoblot) (HEK293T cells; 100 nM bortezomib for 4 h): accumulation of ubiquitylated proteins
- proteasomal activity of AA/TV PSMB5 ([9]; 10 nM bortezomib): significant resistance

SMILES: COc1ccc(C[C@H](NC(=O)[C@H](C)NC(=O)CN2CCOCC2)C(=O)N[C@@H](Cc2ccccc2)C(=O)C2(C)CO2)cc1 (stereo in doubt) [ONX-0914, reference compound]
- PSMB9 activity at single concentration [5]: did not inhibit
